According to ChEMBL document CHEMBL4609972, “Histone deacetylase 8 (HDAC8) and its inhibitors with selectivity to other isoforms: An overview” (Eur J Med Chem, 2019):
Square brackets hold non-standard residues; d marks the D form. Peptide text beside a SMILES is read from it. * marks the point of attachment. Asu = N[C@@H](CCCCCC(=O)O)C(=O)O; NHOH = ON*

Experiments:
[1] = biological target: T1, Histone deacetylase 8 (Homo sapiens, UniProt Q9BY41); assay: Inhibition of HDAC8 (unknown origin)
T1 sequence (Q9BY41 whole entry): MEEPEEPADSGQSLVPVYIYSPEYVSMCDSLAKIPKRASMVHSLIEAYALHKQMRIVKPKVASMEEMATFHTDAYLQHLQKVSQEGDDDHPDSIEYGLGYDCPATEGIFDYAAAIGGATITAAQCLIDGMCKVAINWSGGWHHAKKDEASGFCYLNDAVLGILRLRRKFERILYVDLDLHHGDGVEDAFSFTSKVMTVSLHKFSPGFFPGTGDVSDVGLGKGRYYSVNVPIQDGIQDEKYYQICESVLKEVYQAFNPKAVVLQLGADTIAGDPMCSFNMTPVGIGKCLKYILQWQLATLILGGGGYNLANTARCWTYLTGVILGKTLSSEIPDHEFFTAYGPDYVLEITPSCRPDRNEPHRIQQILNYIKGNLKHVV

[2] = biological target: T2, Protein deacetylase HDAC6 (Homo sapiens, UniProt Q9UBN7); assay: Inhibition of HDAC6 (unknown origin)
T2 sequence (Q9UBN7 whole entry): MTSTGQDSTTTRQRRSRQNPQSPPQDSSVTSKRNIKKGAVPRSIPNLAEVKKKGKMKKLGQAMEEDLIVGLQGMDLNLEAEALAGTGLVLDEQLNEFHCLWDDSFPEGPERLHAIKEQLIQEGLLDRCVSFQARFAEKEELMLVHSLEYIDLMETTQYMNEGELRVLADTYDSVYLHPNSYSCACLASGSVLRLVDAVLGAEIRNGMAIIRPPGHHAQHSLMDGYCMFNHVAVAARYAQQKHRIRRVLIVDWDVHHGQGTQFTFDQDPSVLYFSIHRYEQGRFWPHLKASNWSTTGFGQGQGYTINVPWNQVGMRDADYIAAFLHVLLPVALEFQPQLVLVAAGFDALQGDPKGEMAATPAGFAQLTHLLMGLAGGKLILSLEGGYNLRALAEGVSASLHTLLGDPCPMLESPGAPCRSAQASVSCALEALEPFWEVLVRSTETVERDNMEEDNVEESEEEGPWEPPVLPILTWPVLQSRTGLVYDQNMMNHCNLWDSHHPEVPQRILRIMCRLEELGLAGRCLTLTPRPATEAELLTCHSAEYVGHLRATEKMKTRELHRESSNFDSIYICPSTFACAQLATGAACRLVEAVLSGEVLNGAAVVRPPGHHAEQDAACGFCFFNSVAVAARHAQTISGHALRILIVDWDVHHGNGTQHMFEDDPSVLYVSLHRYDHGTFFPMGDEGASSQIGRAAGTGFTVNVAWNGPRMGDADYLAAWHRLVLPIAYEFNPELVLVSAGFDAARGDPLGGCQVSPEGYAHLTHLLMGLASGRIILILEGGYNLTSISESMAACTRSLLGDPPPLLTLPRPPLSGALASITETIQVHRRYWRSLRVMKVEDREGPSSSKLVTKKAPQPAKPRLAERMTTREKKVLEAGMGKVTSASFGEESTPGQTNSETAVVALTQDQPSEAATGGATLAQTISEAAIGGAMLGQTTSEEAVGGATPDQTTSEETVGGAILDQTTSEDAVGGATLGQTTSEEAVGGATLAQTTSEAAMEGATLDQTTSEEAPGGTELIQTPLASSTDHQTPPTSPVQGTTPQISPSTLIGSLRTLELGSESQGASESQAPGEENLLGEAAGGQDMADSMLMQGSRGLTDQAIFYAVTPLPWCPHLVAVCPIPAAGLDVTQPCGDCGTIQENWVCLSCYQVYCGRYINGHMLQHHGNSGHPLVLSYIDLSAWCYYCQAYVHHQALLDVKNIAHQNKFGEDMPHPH

[3] = biological target: Histone deacetylase; assay: Inhibition of HDAC (unknown origin); format: protein assay, Homo sapiens
[4] = biological target: 72 kDa type IV collagenase (Homo sapiens, UniProt P08253); assay: Inhibition of MMP2 (unknown origin)
Chain of 72 kDa type IV collagenase (P08253 whole entry): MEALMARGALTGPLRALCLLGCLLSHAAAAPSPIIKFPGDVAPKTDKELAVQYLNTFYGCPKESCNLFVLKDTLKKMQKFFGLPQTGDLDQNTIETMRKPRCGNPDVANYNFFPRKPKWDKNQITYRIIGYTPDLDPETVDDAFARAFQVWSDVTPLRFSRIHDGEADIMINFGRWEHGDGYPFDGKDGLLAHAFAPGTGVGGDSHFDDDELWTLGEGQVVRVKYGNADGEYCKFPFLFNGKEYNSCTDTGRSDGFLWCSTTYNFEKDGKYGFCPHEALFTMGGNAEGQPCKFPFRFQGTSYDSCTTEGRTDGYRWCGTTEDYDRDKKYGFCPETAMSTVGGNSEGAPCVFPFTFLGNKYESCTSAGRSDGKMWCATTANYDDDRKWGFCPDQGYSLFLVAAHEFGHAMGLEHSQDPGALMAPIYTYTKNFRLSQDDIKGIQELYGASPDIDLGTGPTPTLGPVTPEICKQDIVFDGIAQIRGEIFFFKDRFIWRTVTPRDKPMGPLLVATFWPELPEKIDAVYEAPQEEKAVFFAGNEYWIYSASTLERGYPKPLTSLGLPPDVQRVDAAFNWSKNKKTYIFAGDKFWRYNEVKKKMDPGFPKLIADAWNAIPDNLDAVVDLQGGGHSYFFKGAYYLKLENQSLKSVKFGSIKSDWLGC

SMILES	IC50 [1] [nM]	IC50 [2] [nM]	further results
O=C(CCCCCNC(=O)c1ccc(NC(=O)NC(C(=O)Nc2cccc(C(F)(F)F)c2)c2ccccc2)cc1)NO (centres undefined)	967	–	–
O=C(CCCCCCC(=O)Nc1cc(C(F)(F)F)ccc1Cl)NO	119	–	–
CC[C@H](C)[C@@H]1NC(=O)[C@@H](Cc2ccc(OC)cc2)NC(=O)[C@H](CCCCCC(=O)NO)NC(=O)[C@H]2CCCN2C1=O (cyclo([Asu](NHOH)[dY](Me)I[dP]))	–	–	IC50 [3]: 3.32 nM
O=C(NO)c1cccc(-c2nc(CSc3ccccc3)n[nH]2)c1	53	–	–
O=C(O)CC[C@@H](NC(=O)Cc1ccc(Br)cc1)C(=O)NCc1ccc([N+](=O)[O-])cc1	2890	–	IC50 [4]: 2890 nM

More lines, main results first:

IC50 [1] [nM]	IC50 [2] [nM]	SMILES	further results
–	1400	O=C(NO)c1ccc(NCc2csc3ccccc23)cc1	–
–	417	CC(C)[C@@H](C#Cc1ccc(C(=O)NO)cc1)NC(=O)C1Cc2ccccc2O1 (some centres undefined)	–
–	376	O=C(NO)c1ccc(CN(CCO)C(=O)Cc2ccccc2)cc1	–
